Measurements from ChEMBL document CHEMBL5604063, “ASAP - DENV-2 NS2B-NS3 protease fluorescence dose response” (2024).
“And” between values parts separate entries of the source, which are not always exact repeats. Equal entries are not always repeated.

Key:
Genome polyprotein [1] = target: T1, Genome polyprotein (dengue virus type 2, UniProt P29990); type: functional, Thailand/16681/1984
Genome polyprotein [2] = target: T1, Genome polyprotein; type: functional, Thailand/16681/1984; remark: listed apart in the source

T1 sequence (P29990 1346-1475 limits assumed): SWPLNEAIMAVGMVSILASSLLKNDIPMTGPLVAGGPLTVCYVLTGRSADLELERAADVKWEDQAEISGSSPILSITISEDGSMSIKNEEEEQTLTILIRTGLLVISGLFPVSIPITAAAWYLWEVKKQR
T1 sequence (P29990 1476-2093 limits assumed): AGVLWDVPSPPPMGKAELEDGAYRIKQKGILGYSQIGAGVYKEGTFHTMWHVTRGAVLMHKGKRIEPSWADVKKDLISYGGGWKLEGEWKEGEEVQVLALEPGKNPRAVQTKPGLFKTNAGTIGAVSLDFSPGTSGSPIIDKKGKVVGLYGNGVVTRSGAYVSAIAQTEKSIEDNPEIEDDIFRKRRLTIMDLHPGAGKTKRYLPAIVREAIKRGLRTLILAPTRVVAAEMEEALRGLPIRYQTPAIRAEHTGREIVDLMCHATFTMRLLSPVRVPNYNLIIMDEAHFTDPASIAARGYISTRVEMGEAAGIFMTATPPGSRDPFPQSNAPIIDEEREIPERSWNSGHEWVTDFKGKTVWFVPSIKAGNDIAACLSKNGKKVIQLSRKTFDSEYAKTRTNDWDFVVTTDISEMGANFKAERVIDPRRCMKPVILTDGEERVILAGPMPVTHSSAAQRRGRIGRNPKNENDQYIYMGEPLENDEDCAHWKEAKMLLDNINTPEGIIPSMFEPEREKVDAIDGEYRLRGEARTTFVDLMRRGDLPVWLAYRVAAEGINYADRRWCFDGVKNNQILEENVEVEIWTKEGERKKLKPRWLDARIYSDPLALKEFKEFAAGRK

| Structure (SMILES) | IC50 (Genome polyprotein [1]) | IC50 (Genome polyprotein [2]) |
| --- | --- | --- |
| Brc1csc(CNCCc2nnc[nH]2)c1 | > 100 µM | > 99.5 µM |
| NCc1cccc(NC(=O)c2cc(Cl)cc3c2cnn3CC2CC2)c1 | > 100 µM | > 99.5 µM |
| Cc1cc(C(=O)Nc2cccc(CN)c2)c2cnn(-c3ccc(F)cc3)c2n1 | > 100 µM | > 99.5 µM |
| NCc1cccc(NC(=O)c2cc(Cl)cc(Cl)c2)c1 | > 100 µM | > 99.5 µM |
| NCc1cccc(NC(=O)[C@H]2C[C@@H](C(F)(F)F)C[C@@H](C(F)(F)F)C2)c1 | > 100 µM | > 99.5 µM |
| CN(C)Cc1cc(Cl)cc(C(=O)Nc2cccc(CN)c2)c1 | > 100 µM | > 99.5 µM |
| Cc1ccc(S(=O)(=O)N2Cc3ccccc3C[C@@H](C(=O)Nc3cccc(CN)c3)C2)cc1 | > 100 µM | 75.2 µM |
| NCc1cccc(NC(=O)c2cc(NC(=O)OCc3ccccc3)cc(C3CC3)c2)c1 | > 100 µM | 76.1 µM |
| C[C@H]1CN(C)C[C@@H](C(=O)Nc2cccc(CN)c2)O1 | > 100 µM | > 99.5 µM |
| Cc1cc(NC(=O)OCc2ccccc2)cc(C(=O)Nc2cccc(CN)c2)c1 | > 100 µM | > 99.5 µM |
| C[C@H]1C[C@@H](C(=O)Nc2cccc(CN)c2)CC(=O)N1 | > 100 µM | > 99.5 µM |
| CCn1c(=O)c(N2CC[C@H](CO)C2)nc2cc(C(=O)O)ccc21 | > 100 µM | > 99.5 µM |
| O=C(Nc1cc(Cl)cc(C(=O)Nc2cccc(-c3cc[nH]n3)c2)c1)OCc1ccccc1 | > 100 µM | > 99.5 µM |
| NCc1cccc(NC(=O)C2CCNCC2)c1 | > 100 µM | > 99.5 µM |
| NCc1cc(Br)cc(NC(=O)c2cc(Cl)cc(NC(=O)OCc3ccccc3)c2)c1 | > 100 µM | > 99.5 µM |
| CC1(C)CCC(F)(F)C[C@H]1C(=O)Nc1cccc(CN)c1 | > 100 µM | > 99.5 µM |
| OCCCCCc1nc(-c2ccc(Br)o2)no1 | > 100 µM | > 99.5 µM |
| CCn1ncc2c(C(=O)Nc3cccc(CN)c3)cc(C)nc21 | > 100 µM | > 99.5 µM |
| Cn1cc([C@@H]2C[C@H](C(=O)Nc3cccc(CN)c3)CC(=O)N2)cn1 | > 100 µM | > 99.5 µM |
| O=C(NCCc1nc2ccccc2[nH]1)c1cc2ccc(F)cc2s1 | > 100 µM | > 99.5 µM |
| Cc1cc(C(=O)Nc2cccc(CN)c2)nc(C)n1 | > 100 µM | > 99.5 µM |
| O=C(Nc1cc(Cl)cc(C(=O)Nc2cccc(CN3CCCC3=O)c2)c1)OCc1ccccc1 | > 100 µM | > 99.5 µM |

| Structure (SMILES) | IC50 (Genome polyprotein [1]) | IC50 (Genome polyprotein [2]) |
| --- | --- | --- |
| O=C(Nc1cc(Cl)cc(C(=O)Nc2ccc3c(c2)OCCNC3)c1)OCc1ccccc1 | > 100 µM | > 99.5 µM |
| Cc1cc(C(=O)Nc2cccc(CN)c2)c2c(C)nn(CC(=O)NC(C)C)c2n1 | > 100 µM | > 99.5 µM |
| N[C@@H](CCO)c1cccc(NC(=O)c2cc(Cl)cc(NC(=O)OCc3ccccc3)c2)c1 | > 100 µM | > 99.5 µM |
| CN(C)[C@@H]1CCC[C@@H](C(=O)Nc2cccc(CN)c2)C1 | > 100 µM | > 99.5 µM |
| C[C@@H](N)c1cccc(NC(=O)[C@H]2[C@H]3CCCCC[C@H]3[C@H]2NC(=O)OCc2ccccc2)c1 | 29 µM | 13.5 µM and 13.8 µM |
| Cc1cc(C(=O)Nc2cccc(CN)c2)cc(O)n1 | > 100 µM | > 99.5 µM |
| Cc1ccc(S(=O)(=O)CCCn2ccc3sccc3c2=O)cc1 | > 100 µM | > 99.5 µM |
| COc1ccc(-c2cccc([C@@H](NC(=O)OCc3ccccc3)C(=O)Nc3cccc(CN)c3)c2)cn1 | > 100 µM | > 99.5 µM |
| c1coc(CSCc2nc(-c3nc[nH]n3)no2)c1 | > 100 µM | > 99.5 µM |
| NCc1cccc(NC(=O)[C@@H]2[C@H](N)[C@@H]3CCCCC[C@@H]32)c1 | > 100 µM | > 99.5 µM |
| NCc1cccc(NC(=O)[C@@H]2CCC[C@]3(CCNC3=O)C2)c1 | > 100 µM | > 99.5 µM |
| NCc1cccc(NC(=O)c2c(F)c(Cl)cc(NC(=O)OCc3ccccc3)c2F)c1 | > 100 µM | > 99.5 µM |
| CN(C)CCc1ccc(NC(=O)c2cc(Cl)cc(NC(=O)OCc3ccccc3)c2)cc1 | > 100 µM | > 99.5 µM |
| N#CCc1cccc(NC(=O)c2cc(Cl)cc(NC(=O)OCc3ccccc3)c2)c1 | > 100 µM | > 99.5 µM |
| CC(C)[C@@H]1CC[C@@H](C)C[C@H]1C(=O)Nc1cccc(CN)c1 | > 100 µM | > 99.5 µM |
| NCc1cccc(NC(=O)c2cc(Cl)cc(C(N)=O)c2)c1 | > 100 µM | > 99.5 µM |
| COc1ccc2nc(C)cc(C(=O)Nc3cccc(CN)c3)c2c1 | > 100 µM | > 99.5 µM |
| NCc1cccc(NC(=O)[C@@]23CCC[C@H](C2)N3C(=O)OCc2ccccc2)c1 | > 100 µM | > 99.5 µM |
| CN(C)Cc1ccc(NC(=O)c2cc(Cl)cc(NC(=O)OCc3ccccc3)c2)cc1 | > 100 µM | > 99.5 µM |
| NCc1cccc(NC(=O)[C@@H]2CCC[C@H](OC(F)(F)F)C2)c1 | > 100 µM | > 99.5 µM |
| NCc1cccc(NC(=O)c2cncc(Cl)c2)c1 | > 100 µM | > 99.5 µM |
| Cc1cc(C(=O)Nc2cccc(CN)c2)cc(NCC(F)(F)F)n1 | > 100 µM | > 99.5 µM |

| Structure (SMILES) | IC50 (Genome polyprotein [1]) | IC50 (Genome polyprotein [2]) |
| --- | --- | --- |
| Cc1cc(C(=O)Nc2cccc(CN)c2)c2nc(C)n(C)c2n1 | > 100 µM | > 99.5 µM |
| Cc1cc(C)c([C@@H](CC(=O)Nc2cccc(CN)c2)NC(=O)OCc2ccccc2)cc1C | 11.6 µM | 7.12 µM and 7.23 µM |
| CC(F)(F)c1cccc(NC(=O)c2cc(Cl)cc(NC(=O)OCc3ccccc3)c2)c1 | > 100 µM | > 99.5 µM |
| O=C(Nc1cc(Cl)cc(C(=O)Nc2ccc(CCN3CCOCC3)cc2)c1)OCc1ccccc1 | > 100 µM | > 99.5 µM |
| O=C(Nc1cc(Cl)cc(C(=O)Nc2cccc(-c3nnn[nH]3)c2)c1)OCc1ccccc1 | 11.1 µM and 11 µM | 13.6 µM |
| C[C@@H]1C[C@@H](C(=O)Nc2cccc(CN)c2)CCO1 | > 100 µM | > 99.5 µM |
| C[C@@H]1CCC[C@H](C(=O)Nc2cccc(CN)c2)O1 | > 100 µM | > 99.5 µM |
| NCc1cccc(NC(=O)c2cc(Br)cc3[nH]ccc23)c1 | > 100 µM | > 99.5 µM |
| Cc1cc(C(F)(F)F)nc(C(=O)Nc2cccc(CN)c2)n1 | > 100 µM | > 99.5 µM |
| Cc1cc(C(=O)Nc2cccc(CN)c2)c2c(C)n[nH]c2n1 | > 100 µM | > 99.5 µM |
| Cc1cc(C(=O)Nc2cccc(CN)c2)cc(NCc2cnn(C)c2)n1 | > 100 µM | > 99.5 µM |
| NCc1cccc(NC(=O)[C@H]2COCC3(CCC3)O2)c1 | > 100 µM | > 99.5 µM |
| Brc1cnc(Sc2ncc[nH]2)nc1 | > 100 µM | > 99.5 µM |
| C[C@H]1CN(C)C[C@H](C(=O)Nc2cccc(CN)c2)O1 | > 100 µM | > 99.5 µM |
| CC[C@@H](Cc1nnn[nH]1)c1ccc(NC(=O)c2cc(Cl)cc(NC(=O)OCc3ccccc3)c2)cc1 | 8.21 µM and 8.62 µM | 8.85 µM |
| O=C(Nc1cc(Cl)cc(C(=O)Nc2cccc(Cc3nn[nH]n3)c2)c1)OCc1ccccc1 | > 100 µM | 22 µM |
| Cc1cc(C(=O)N[C@H](CC(=O)Nc2cccc(CN)c2)c2ccc(OCc3ccccc3)c(Br)c2)sn1 | > 100 µM | 16.8 µM and 25.3 µM |
| CC(=O)NCc1cccc(NC(=O)c2cc(Cl)cc(NC(=O)OCc3ccccc3)c2)c1 | > 100 µM | > 99.5 µM |
| CS(=O)(=O)Nc1cccc(NC(=O)c2cc(Cl)cc(NC(=O)OCc3ccccc3)c2)c1 | > 100 µM | > 99.5 µM |
| NCc1cccc(NC(=O)c2cccc3c2CCC3)c1 | > 100 µM | > 99.5 µM |
| NCCc1cccc(-c2cccc([C@@H](NC(=O)OCc3ccccc3)C(=O)Nc3cccc(CN)c3)c2)c1 | > 100 µM | 33.6 µM |
| CC(C)(C)OC(=O)NCc1cc(Br)cc(NC(=O)c2cc(Cl)cc(NC(=O)OCc3ccccc3)c2)c1 | > 100 µM | > 99.5 µM |

| Structure (SMILES) | IC50 (Genome polyprotein [1]) | IC50 (Genome polyprotein [2]) |
| --- | --- | --- |
| CN(C)CC[C@H](NC(=O)c1cc(Cl)cc(NC(=O)OCc2ccccc2)c1)c1ccccc1 | > 100 µM | > 99.5 µM |
| CCc1cccc(NC(=O)[C@]2(Oc3ccc(Br)cc3)CCNC3(CC3)C2)c1 | > 100 µM | > 99.5 µM |
| CS(=O)(=O)c1cccc(NC(=O)c2cc(Cl)cc(NC(=O)OCc3ccccc3)c2)c1 | > 100 µM | > 99.5 µM |
| C[C@H]1Oc2ccc(NC(=O)c3cc(Cl)cc(NC(=O)OCc4ccccc4)c3)cc2NC1=O | > 100 µM | > 99.5 µM |
| NCc1cccc(NC(=O)[C@H]2CCOC3(CCC3)C2)c1 | > 100 µM | > 99.5 µM |
| CCn1ncc(-c2noc3nc(C)cc(C(=O)Nc4cccc(CN)c4)c23)c1C | > 100 µM | > 99.5 µM |
| NCc1cccc(NC(=O)[C@H]2CCc3nnc(C4CC4)n3C2)c1 | > 100 µM | > 99.5 µM |
| C[C@H]1CN(Cc2ccccc2)C[C@@H](C(=O)Nc2cccc(CN)c2)O1 | > 100 µM | > 99.5 µM |
| COc1ccc2c(c1)c(C(=O)Nc1cccc(CN)c1)c(C)n2C1CCCC1 | > 100 µM | > 99.5 µM |
| Cc1cc(Cl)cc(C(=O)Nc2cccc(CN)c2)n1 | > 100 µM | > 99.5 µM |
| COC1(C(=O)N[C@H](CC(=O)Nc2cccc(CN)c2)c2ccc(OCc3ccccc3)c(Br)c2)CC1 | > 100 µM | > 99.5 µM |
| O=S(=O)(Cc1nnc(Cc2ccccc2)o1)c1ccc(O)cc1 | > 100 µM | > 99.5 µM |
| CCOc1cccc(-c2ccc(S(=O)(=O)Nc3cc(F)c(Cl)cc3C(=O)O)cc2)c1 | 7.19 µM | 5.09 µM |
| NCc1cc(Cl)cc(C(=O)Nc2ccc3c(c2)CNC3)c1 | > 100 µM | > 99.5 µM |
| C[C@@H](N)c1cc(Cl)cc(C(=O)Nc2cccc(CN)c2)c1 | > 100 µM | > 99.5 µM |
| COC(=O)[C@]12CC[C@](C(=O)Nc3cccc(CN)c3)(COC1)C2 | > 100 µM | > 99.5 µM |
| CN1CCc2c(cccc2NC(=O)c2cc(Cl)cc(NC(=O)OCc3ccccc3)c2)C1 | > 100 µM | > 99.5 µM |
| NCc1cccc(NC(=O)[C@@H]2CCCCN2)c1 | > 100 µM | > 99.5 µM |
| O=C(Nc1cc(Cl)cc(C(=O)Nc2cccc(-n3nn[nH]c3=O)c2)c1)OCc1ccccc1 | 8.66 µM and 9.23 µM | 11 µM and 11.4 µM |
